Measurements as given in paper PMC11110727, “Exploiting thiol-functionalized benzosiloxaboroles for achieving diverse substitution patterns – synthesis, characterization and biological evaluation of promising antibacterial agents” (RSC Medicinal Chemistry, 2024).
In brackets after ≈: the same amount, converted by molar mass. Read-outs that look alike come from different tables or passages of the source.

Legend:
E. cloacae DSM 6234 = assay: Antibacterial activity: MIC/MBC, MIC with PAβN, disc-diffusion; format: cell-based, Enterobacter cloacae; settings: E. cloacae DSM 6234; for MIC: Enterobacter cloacae, DSM6234, read-out: MIC
Outline: (§1)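 Read-outs are disc-diffusion zones, broth-microdilution MICs and bactericidal concentrations (MBC), following EUCAST and CLSI guidance. The efflux contribution was probed by rerunning MICs with 20 μg mL^−1 PAβN in MgSO4-supplemented (1 mM) Mueller–Hinton II broth, a ≥4-fold decrease being significant.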

S. aureus ATCC 6538P = assay: Antibacterial activity: MIC/MBC determination and disc-diffusion; format: cell-based, Staphylococcus aureus; settings: S. aureus ATCC 6538P; for diameter of inhibition zone: disc-diffusion, — = zone not observed; for MBC / MIC: Staphylococcus aureus, ATCC6538P; for MIC: read-out: MIC
Outline: (§2)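 EUCAST/CLSI MIC plus disc-diffusion; MBC, MFC by CLSI. Pre-culture: two passages, 30 °C, 24–48 h (TSA, Sabouraud). Controls fluconazole (fungi) and linezolid (Gram-positives); DMSO vehicle.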

E. faecalis ATCC 29212 = assay: as above; format: cell-based; settings: Enterococcus faecalis, ATCC29212, E. faecalis ATCC 29212; for MIC: read-out: MIC
Outline: as §2

[1] = system: S. aureus ATCC 43300 MRSA; assay: as above; format: cell-based; settings: Staphylococcus aureus, S. aureus ATCC 43300 MRSA; for MIC: read-out: MIC
Outline: as §2

[2] = system: S. epidermidis ATCC 12228; assay: as above; format: cell-based; settings: Staphylococcus epidermidis, ATCC12228, S. epidermidis ATCC 12228; for MIC: read-out: MIC
Outline: as §2

E. faecium ATCC 6057 = assay: as above; format: cell-based; settings: Enterococcus faecium, ATCC6057; E. faecium ATCC 6057; read-out: MIC
Outline: as §2

[3] = system: S. maltophilia ATCC 12714; assay: Antibacterial activity: MIC/MBC, MIC with PAβN, disc-diffusion; format: cell-based, Stenotrophomonas maltophilia; settings: S. maltophilia ATCC 12714; for MIC: Stenotrophomonas maltophilia, ATCC12714, read-out: MIC
Outline: as §1

P. aeruginosa ATCC 27853 = assay: as above; format: cell-based; settings: Pseudomonas aeruginosa, ATCC27853; P. aeruginosa ATCC 27853; read-out: MIC
Outline: as §1

C. krusei ATCC 6258 = assay: Antifungal activity: MIC/MFC, disc-diffusion; format: cell-based; settings: for diameter of inhibition zone: C. krusei ATCC 6258, (-) = zone not observed, paper discs 9 mm; for MIC: Pichia kudriavzevii, ATCC6258, read-out: MIC
Outline: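 Compounds in DMSO were tested by disc diffusion and MIC determination following EUCAST/CLSI guidance, with fungicidal concentration (MFC) per CLSI. Strain first grown twice-checked on Sabouraud dextrose agar, 30 °C, 24–48 h.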

A. baumannii ATCC 19606 = assay: Antibacterial activity: MIC/MBC, MIC with PAβN, disc-diffusion; format: cell-based, Acinetobacter baumannii; settings: A. baumannii ATCC 19606; for MIC: Acinetobacter baumannii, ATCC19606, read-out: MIC
Outline: as §1

[4] = PAβN 20 μg mL^−1, MHB + 1 mM MgSO4
[5] = read-out: MBC (first MBC where Eagle effect)
[6] = value after the slash, read-out: second MBC (Eagle effect)

Row | Compound | MIC (E. cloacae DSM 6234) | diameter of inhibition zone (S. aureus ATCC 6538P) | MBC (S. aureus ATCC 6538P; [5]) | MIC (S. aureus ATCC 6538P) | MBC (S. aureus ATCC 6538P; [6]) | MIC (E. faecalis ATCC 29212) | MIC [1] | MIC [2] | MIC (E. faecium ATCC 6057) | MIC [3] | MIC (P. aeruginosa ATCC 27853) | diameter of inhibition zone (C. krusei ATCC 6258) | MIC (C. krusei ATCC 6258) | MIC (A. baumannii ATCC 19606) | other results
1 | COC(=O)CCSc1ccc2c(c1F)[Si](C)(C)OB2O [Compound 4, Methyl 3-((7-fluoro-3-hydroxy-1,1-dimethyl-1,3-dihydrobenzo[c][1,2,5]oxasilaborol-6-yl)thio)propanoate] | > 400 µg/mL | 27 mm | 25 µg/mL (≈ 79.6 µM) | 12.5 µg/mL (≈ 39.8 µM) | 400 µg/mL (≈ 1270 µM) | 200 µg/mL (≈ 636 µM) | 12.5 µg/mL (≈ 39.8 µM) | 25 µg/mL (≈ 79.6 µM) | 100 µg/mL (≈ 318 µM) | > 400 µg/mL | > 400 µg/mL | 12 mm | 200 µg/mL (≈ 636 µM) | > 400 µg/mL | -fold reduction of MIC in the presence of PAβN (E. cloacae DSM 6234; [4]): 8 -fold; -fold reduction of MIC in the presence of PAβN [3, 4]: 2 -fold; -fold reduction of MIC in the presence of PAβN (A. baumannii ATCC 19606; [4]): 2 -fold
2 | C[Si]1(C)OB(O)c2ccc(SCC(=O)c3ccccc3)c(F)c21 [Compound 23, 2-((7-Fluoro-3-hydroxy-1,1-dimethyl-1,3-dihydrobenzo[c][1,2,5]oxasilaborol-6-yl)thio)-1-phenylethan-1-one] | > 400 µg/mL | 31 mm | 3.12 µg/mL (≈ 9.01 µM) | 1.56 µg/mL (≈ 4.51 µM) | 200 µg/mL (≈ 578 µM) | 50 µg/mL (≈ 144 µM) | 3.12 µg/mL (≈ 9.01 µM) | 12.5 µg/mL (≈ 36.1 µM) | 50 µg/mL (≈ 144 µM) | > 400 µg/mL | > 400 µg/mL | 12 mm | 200 µg/mL (≈ 578 µM) | > 400 µg/mL | MBC (E. faecalis ATCC 29212): 200 µg/mL (≈ 578 µM); MBC [1, 5]: 25 µg/mL (≈ 72.2 µM); MBC [1, 6]: 100 µg/mL (≈ 289 µM); MBC [2]: 50 µg/mL (≈ 144 µM)
